Assay results taken from patent US4906621A, “Certain 2-carboxypiperidyl-alkylene phosphonic acids and esters thereof useful for the treatment of disorders responsive to N-methyl-D-aspartate receptor blockade” (Ciba-Geigy Corporation, priority 1987, dated 1990).

Key:
[1] = relative pharmacological activity of enantiomers (test not specified); details: enantiomers of the compound of Example 2
[2] = test system: NMDA-type excitatory amino acid receptors; experiment: inhibition of NMDA-evoked 3H-acetylcholine release from rat striatal tissue slices; type: cell-based; details: stimulation with 50 uM NMDA, read-out: IC50 in the in vitro NMDA-evoked 3H-ACh release test
Experimental: The inhibitory effect on the NMDA-type excitatory amino acid receptors is determined in vitro by measuring the inhibition of the NMDA-evoked ^3 H-acetylcholine (^3 H-ACh) release from corpus striatum tissue of rat brain, according to J. Lehmann and B. Scatton, Brain Research 252, 77-89 (1982) and Nature 297, 422-424 (1982).
Antagonists of NMDA-type excitatory amino acid receptors competitively antagonize NMDA-evoked ^3 H-acetylcholine (^3 H-ACh) release from corpus striatum tissue of the brain.
The inhibition of the NMDA-evoked ^3 H-acetylcholine (^3 H-ACh) release from rat striatal tissue slices by a compound of the invention is expressed as % of release of ^3 H-ACh in response to stimulation with 50 uM NMDA compared to control. Tests are two-tailed with a minimum of n=4 in each group. In IC50 values represent the concentration of test compound required to inhibit the NMDA-increased ^3 H-ACh release by 50%.

[3] = test system: DBA/2 mice; experiment: audiogenic-induced seizures in DBA/2 mice; type: in vivo; details: Mus musculus, ip, 0.75 h, i.p. administration, read-out: ED50 in the audiogenic-induced seizure model
Experimental: Further indicative of the anticonvulsant activity, compounds of the invention are effective in preventing audiogenic-induced seizures in DBA/2 mice (Chapman et al., Arzneim.-Forsch. 34:1261, 1984).
The effect is determined as follows:
Forty-five minutes following compound or vehicle administration, mice are placed individually in a soundproof chamber. After a 30 second accommodation period, the mice are exposed to a sound stimulation of 110 dB for 1 minute or until the appearance of a tonic-clonic seizure. Control seizures consist of an initial wild running phase. The prevention of wild running is indicative of an anticonvulsant effect.
Test compounds in either distilled water solution or in a 3% (w/v) colloidal cornstarch suspension containing 5% (w/v) polyethyleneglycol 400 and 0.34% (w/v) Tween 80, are administered by oral intubation or intraperitoneally in a volume of 10 ml/kg of body weight.

[4] = Cook/Davidson conflict model for anxiolytic activity; type: in vivo; details: ip; read-out: dose active in the Cook/Davidson test for anxiolytic activity
Description: Indicative of anxiolytic activity, compounds of the invention are effective in the Cook/Davidson conflict model (Psychopharmacologia 15, 159-168 (1969).

[5] = test system: mongolian gerbil; experiment: mongolian gerbil ischemia model; type: in vivo; details: 10 mg/Kg ip, administered either before or after the ischemia episode
Description: The cerebral antiischemic activity, that is the effect of the compounds of the invention in preventing or reducing brain damage in mammals due to a transient cerebral ischemia (as in a stroke) can be determined in the mongolian gerbil ischemia model, e.g. the model described by T. Kirino, Brain Research 239, 57-69 (1982).
The inhibitory effect on the observed hyperactivity and on the degeneration of neurons in the hippocampus region of the brain following a 5-minute period of ischemia is measured.
The test compound is administered i.p. 15 minutes before the ischemia or 2, 4, and 6 hours post ischemia.

## O=C(O)[C@H]1C[C@@H](CP(=O)(O)O)CCN1 (single isomer, unassigned) [(-)-cis-4-phosphonomethyl-2-piperidinecarboxylic acid]
[1]
  pharmacological activity relative to the other enantiomer: more active enantiomer

## O=C(O)[C@@H]1C[C@H](CP(=O)(O)O)CCN1 (relative stereo) [cis-4-phosphonomethyl-2-piperidinecarboxylic acid hyrdochloride]
[2]
  IC50: ~8 µM
[3]
  ED50: ~1.8 mg/kg

## O=C(O)[C@H]1C[C@@H](CP(=O)(O)O)CCN1 (relative stereo) [cis-4-phosphonomethyl-2-piperidine-carboxylic acid]
[4]
  minimal effective dose: ~2 mg/kg
[5]
  effect on degeneration of cerebral neurons in the hippocampus region of the brain: reduces the degeneration of cerebral neurons
  effect on ischemia-induced hyperactivity of the gerbil: inhibits the ischemia-induced hyperactivity

## O=C(O)[C@H]1C[C@@H](CP(=O)(O)O)CCN1 (single isomer, unassigned) [(+)-cis-4-phosphonomethyl-2-piperidinecarboxylic acid]
[1]
  pharmacological activity relative to the other enantiomer: less active enantiomer
